Assay results taken from patent US4150139A, “Triazolobenzazepine derivatives” (Takeda Chemical Industries, Ltd., priority 1976, dated 1979).

Test system: mice
Assay: Analgesic Effect [mice, acetic acid-writhing method]
Assay type: in vivo
Conditions: Mus musculus, po, P.O. (per os), 95% C.L. in parentheses
Text: The analgesic effects of some representative compounds (I) are set forth below in Table I.
[mice, acetic acid-writhing method]

CSc1nnc2n1C=Cc1ccccc1C2 [(I')Z = SCH3, 3-methylthio-11H-s-triazolo[3,4-b][3]benzazepine]
ED50: 10.5 mg/kg

C[S+]([O-])c1nnc2n1C=Cc1ccccc1C2 (centres unmarked) [(I')Z = SOCH3, 3-methylsulfinyl-11H-s-triazolo[3,4-b][3]benzazepine]
ED50: 10.3 mg/kg
